In test [1] the target is leukocyte function–associated antigen-1 (LFA-1) (Homo sapiens, UniProt P20701). In words: ELISA-type ICAM-1–LFA-1 binding assay with purified LFA-1. In kind it is biochemical. On the technique in general: An ELISA detects its analyte on a solid surface through an enzyme-linked reagent.
Test [2] deals with T1, LFA-1 αL I domain (wild-type, low-affinity conformer) (Homo sapiens, UniProt P20701).
T1 sequence (P20701 153-332): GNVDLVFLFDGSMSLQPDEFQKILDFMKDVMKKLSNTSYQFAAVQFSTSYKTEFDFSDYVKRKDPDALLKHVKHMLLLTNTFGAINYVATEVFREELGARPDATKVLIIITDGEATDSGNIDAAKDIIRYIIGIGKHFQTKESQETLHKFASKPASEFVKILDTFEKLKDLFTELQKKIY
In words: 1-aminoanthracene fluorescence displacement assay. It counts as binding.

leukocyte function–associated antigen-1 (LFA-1), sequence (P20701 26-1090 limits assumed): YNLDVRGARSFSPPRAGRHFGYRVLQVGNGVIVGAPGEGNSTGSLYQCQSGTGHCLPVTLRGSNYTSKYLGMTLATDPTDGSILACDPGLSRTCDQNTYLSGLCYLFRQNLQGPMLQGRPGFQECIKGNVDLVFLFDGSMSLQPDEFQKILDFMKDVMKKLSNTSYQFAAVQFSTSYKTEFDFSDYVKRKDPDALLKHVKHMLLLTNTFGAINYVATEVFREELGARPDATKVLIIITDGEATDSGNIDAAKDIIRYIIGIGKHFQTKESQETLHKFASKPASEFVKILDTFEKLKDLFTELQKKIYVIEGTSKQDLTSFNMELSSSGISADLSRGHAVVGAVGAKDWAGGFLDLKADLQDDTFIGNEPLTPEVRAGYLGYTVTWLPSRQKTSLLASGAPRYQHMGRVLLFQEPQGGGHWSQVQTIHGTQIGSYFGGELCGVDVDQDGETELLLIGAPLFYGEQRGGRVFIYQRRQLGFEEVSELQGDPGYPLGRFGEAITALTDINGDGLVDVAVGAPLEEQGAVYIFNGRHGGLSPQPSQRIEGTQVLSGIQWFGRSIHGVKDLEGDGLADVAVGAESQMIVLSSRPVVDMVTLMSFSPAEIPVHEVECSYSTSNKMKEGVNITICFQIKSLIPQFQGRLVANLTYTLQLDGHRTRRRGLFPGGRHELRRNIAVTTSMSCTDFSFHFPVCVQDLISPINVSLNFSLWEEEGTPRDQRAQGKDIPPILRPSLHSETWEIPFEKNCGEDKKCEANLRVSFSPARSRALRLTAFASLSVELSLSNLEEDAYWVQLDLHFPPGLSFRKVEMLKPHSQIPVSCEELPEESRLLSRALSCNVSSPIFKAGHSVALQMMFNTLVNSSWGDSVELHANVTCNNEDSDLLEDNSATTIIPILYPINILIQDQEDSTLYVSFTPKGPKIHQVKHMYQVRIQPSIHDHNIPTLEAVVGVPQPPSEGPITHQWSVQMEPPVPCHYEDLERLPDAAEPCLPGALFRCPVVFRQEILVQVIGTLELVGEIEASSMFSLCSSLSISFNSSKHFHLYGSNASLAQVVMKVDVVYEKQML
leukocyte function–associated antigen-1 (LFA-1), sequence (P05107 23-769 partner): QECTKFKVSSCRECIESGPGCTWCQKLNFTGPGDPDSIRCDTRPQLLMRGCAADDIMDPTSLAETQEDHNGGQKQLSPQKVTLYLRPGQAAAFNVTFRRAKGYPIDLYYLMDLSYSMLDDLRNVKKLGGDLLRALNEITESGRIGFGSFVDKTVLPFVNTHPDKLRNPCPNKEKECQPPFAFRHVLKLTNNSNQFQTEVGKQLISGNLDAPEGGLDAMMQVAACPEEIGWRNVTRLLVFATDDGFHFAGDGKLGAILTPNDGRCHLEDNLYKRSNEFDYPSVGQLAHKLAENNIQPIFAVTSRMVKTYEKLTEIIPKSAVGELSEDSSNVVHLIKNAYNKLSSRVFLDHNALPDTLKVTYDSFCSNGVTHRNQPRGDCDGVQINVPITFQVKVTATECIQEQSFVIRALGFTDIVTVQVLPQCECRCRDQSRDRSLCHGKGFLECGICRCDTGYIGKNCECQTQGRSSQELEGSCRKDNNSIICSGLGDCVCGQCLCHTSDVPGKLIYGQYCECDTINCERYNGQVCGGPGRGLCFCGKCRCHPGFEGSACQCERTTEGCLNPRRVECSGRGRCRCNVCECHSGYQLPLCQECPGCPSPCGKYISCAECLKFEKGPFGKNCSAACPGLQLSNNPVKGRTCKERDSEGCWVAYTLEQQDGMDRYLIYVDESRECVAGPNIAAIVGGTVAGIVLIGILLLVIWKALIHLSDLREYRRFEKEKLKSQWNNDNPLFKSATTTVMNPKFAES

Consider `CC(C)(C)c1cccc(C(C)(C)C)c1O` [DTBP, 2,6-di-tert-butylphenol], for which, in test [1], the “ELISA-type ICAM-1-LFA-1 binding assay with purified LFA-1” value is “Both propofol and DTBP inhibited ICAM-1–LFA-1 binding”. Turning to `CC(C)c1cccc(C(C)C)c1O` [propofol], the IC50 in test [2] stood at 90.3 µM.

As a reminder, the IC50 is the concentration that inhibits the measured activity by half.

(Values after PMC3844542 (Anesthesia and analgesia, 2013).)
